# ChEMBL document CHEMBL1157539, “Thousands of chemical starting points for antimalarial lead identification” (Nature, 2010)
# Test system: Plasmodium falciparum
# Test: GSK_TCMDC: Inhibition of Plasmodium falciparum 3D7 in whole erythrocytes, using parasite LDH activity as an index of growth.
# Assay type: functional, organism-based
# Details: Plasmodium falciparum, 3D7
row,Structure (SMILES),XC50 [nM]
1,CCCCCCCCNCC(O)c1cc(-c2ccc(Cl)cc2)nc2cc(C)ccc12 (configuration not stated),82.3
2,O=C(Nc1cccc(-c2cccc(-c3nc4cc(C(F)(F)F)ccc4[nH]3)c2)c1)c1cccnc1Cl,657
3,O=c1[nH]c2ccc(Nc3nccc(NCCc4ccccc4)n3)cc2[nH]1,1210
4,Cc1cc(C)c(NC(=O)NC2CCN(CCCCCNC(=O)/C=C/c3ccc(Cl)c(Cl)c3)C2)c(C)c1 (configuration not stated),186
5,CN(C)CCNCc1ccc(-c2ccc(-c3nc4cc(F)ccc4[nH]3)cc2)cc1,474
6,O=C(N[C@@H](Cc1ccccc1)C(=O)O)c1cc(-c2ccc(F)cc2)no1.O=C(N[C@@H](Cc1ccccc1)C(=O)O)c1conc1-c1ccc(F)cc1,802
7,CNC(=N)c1ccc(NC(=O)Nc2ccc(C(=N)NC)cc2)cc1,577
8,NS(=O)(=O)Cc1cccc(-c2ccnc3ccc(-c4cccc(S(N)(=O)=O)c4)cc23)c1,1560
9,N=C(N)Nc1nc(-c2cccc(NC(=O)C(F)(F)F)c2)cs1,1050
10,O=C(/C=C/c1ccc(Cl)c(Cl)c1)NCCCCCN1CCC(NC(=O)Nc2cc(F)cc(F)c2)CC1,787
11,COc1ccc2nccc([C@@H](O)CN3CCC(NCc4ccc5nsnc5c4)CC3)c2c1,958
12,Nc1cccc(CNCc2ccc(-c3cccc(-c4nc5ccccc5[nH]4)c3)cc2)c1,710
13,Cc1cc(=NN=Cc2ccccn2)c2cc(F)ccc2[nH]1,761
14,CCOC(=O)c1c(NC(=O)c2ccccc2)sc2c(O)c(CNC3CCCCC3)ccc12,752
15,O=C(Nc1ccc(-c2cccc(-c3nc4ccccc4[nH]3)c2)cc1)Nc1ccc2c(c1)OCO2,254
16,N=C(N)Nc1ccc(C(=O)O)c(O)c1,1030
17,O=C1C(c2ccccc2)=C(Nc2cccc([N+](=O)[O-])c2)c2ccccc21,892
18,N#Cc1ccc2c(c1)CN(CCCCNC(=O)c1ccc(-c3ccccc3)cc1)CC2,894
19,COc1cc(Nc2nccc(N3CCC(NC(=O)Nc4cc(C)ccc4C)C3)n2)cc(OC)c1OC (configuration not stated),1120
20,COc1cccc2[nH]c(NCCCNCc3cc(Br)cc(Br)c3)nc12,950
21,N=C(N)NN=Cc1cc([N+](=O)[O-])ccc1Sc1ccccc1CO,1460
22,Cc1cc(-c2ccc(NC(=O)N3CCc4cc(Cl)c(N5CCN(C)CC5)cc43)cc2)ccc1C#N,589
23,CCCc1c(C(=O)NC2CCC(CN3CCC(c4c[nH]c5ccccc45)CC3)CC2)cnn1-c1ccc(Cl)cc1 (configuration not stated),763
24,CCCCNC(=O)c1[nH]c2c(NC(=O)COc3ccccc3)cccc2c1-c1cccc(NC(=O)C(N)CO)c1 (configuration not stated),852
25,Oc1c(CN2CCCC(C(F)(F)F)C2)cc(Cl)c2ccccc12 (configuration not stated),1570

row,Structure (SMILES),XC50 [nM]
1,NC1=NC2(CCCCC2)N(Cc2ccc(Cl)c(Cl)c2)C(N)=N1,623
2,CC(=O)Nc1ccc(CN2CCCN(c3cc(NC(=O)c4cccc(C)c4)ccn3)CC2)cc1,863
3,O=C(NCc1ccc(F)cc1)Nc1ccc(-c2cccc(-c3nc4cc(F)ccc4[nH]3)c2)cc1,1120
4,Cn1ccc2c3c(N)nc(N)nc3ccc21,902
5,Nc1nc(N)c2c(ccc3c2ccn3Cc2ccc(Cl)cc2)n1,3.2
6,CO/C(=C\C=C\c1cc2cc(Cl)c(Cl)cc2[nH]1)C(=O)NC1CC2CCC(C1)N2C (configuration not stated),1030
7,CCCCc1cc(NCc2ccncc2)nc(Nc2ccc(OC)cc2)n1,1060
8,COc1cc2c(OC)cccc2cc1CNCCCCCCNCc1cc2cccc(OC)c2cc1OC,823
9,CCCCOc1ccc(C(=O)C(CCC(CNC(C)(C)C)C(=O)c2ccc(OCCCC)cc2)CNC(C)(C)C)cc1 (configuration not stated),1020
10,CC(C)N(Cc1ccccc1)C(=O)CN1C(=O)COc2ccc(S(=O)(=O)N3CCCCCC3)cc21,253
11,CCCCCCc1cnc2nc(N)nc(N)c2c1C,194
12,CCOC(=O)c1c(C)n(-c2ccc(Cl)cc2)c2ccc(OC(=O)C=Cc3ccccc3)cc12,698
13,Cn1cccc1C(=O)Nc1cccc(-c2nn3ccccc3c2-c2ccnc(Nc3ccc4c(c3)OCCO4)n2)c1,1350
14,O=C(Nc1ccc(-c2cccc(-c3nc4cc(C(F)(F)F)ccc4[nH]3)c2)cc1)Nc1ccc(Cl)c(Cl)c1,746
15,CO/C(=C\C=C\c1cc2cc(Cl)ccc2[nH]1)C(=O)NCCCN1CCN(c2cc(Cl)ccc2OC)CC1,877
16,Cc1cc(N[C@@H](Cc2ccccc2)C(=O)NCc2cccs2)nc(NCCc2ccc(F)cc2)n1,854
17,N#Cc1cncc(-c2nc3c(N4CCC(Cc5ccccc5)CC4)cccc3n2CCNCc2ccccc2)c1,573
18,O=C(/C=C/c1ccc(Cl)c(Cl)c1)NCCCCCN1CCC(NC(=O)Nc2cccc(F)c2)CC1,769
19,O=C(c1ccc([N+](=O)[O-])o1)N1CCN(c2ccccc2)CC1,40
20,c1ccc(Nc2nc(-c3ccccn3)cs2)nc1,1150
21,O=C(NCCCN1CCC(N2CCCCC2)CC1)c1ccc(N2CCOc3ccccc32)s1,732
22,O=C(Nc1ccccc1)N(Cc1cccc(-c2ccc(CNCCc3ccccc3)cc2)c1)C1CCN(Cc2ccccc2)CC1,349
23,N=C(N)Nc1ccc(NC(=O)Nc2ccc(NC(=N)N)cc2)cc1,386
24,O=C(/C=C/c1cc([N+](=O)[O-])ccc1Cl)N1CCC(CCN2CCC(c3c[nH]c4ccccc34)CC2)CC1,742
25,N=C(NCc1ccc(O)cc1)Nc1nc(-c2ccc(OCCCn3ccnc3)cc2)cs1,749

row,Structure (SMILES),XC50 [nM]
1,COc1cccc(C=CC(=O)N(CCN)Cc2ccccc2)c1,815
2,COc1cccc(C(O)CNc2ccnc(Nc3cccc(-c4csc(C)n4)c3)n2)c1 (configuration not stated),786
3,CCc1ccc(CN2CCC(CN(c3ccc(N4CCOCC4)c(F)c3)S(=O)(=O)c3ccc(C(C)(C)CC)cc3)CC2)cc1,706
4,COc1ccc(NC(=O)Nc2ccc(-c3ccccc3)cc2)cc1Cn1cnc(N2CCCNCC2)cc1=O,759
5,Cc1[nH]c2cc(Cl)ccc2c1C1=CCN(CCCCC2(C)C(=O)Nc3c(F)cccc32)CC1 (configuration not stated),843
6,O=C(Nc1ccc(CCNCc2ccccc2)cc1)Nc1ccc(OC(F)(F)F)cc1,584
7,CC(O)C1CCCCN1C(=O)c1cccc(-c2cccc(-c3nc4ccccc4[nH]3)c2)c1 (configuration not stated),534
8,CC(=O)Oc1c(C(=O)C2CCC(C(C)(C)C)CC2)c(OC(C)=O)c2ccccc2c1OC(C)=O (configuration not stated),268
9,O=C(CSc1ccccn1)Nc1c(F)cccc1F,1210
10,CN(C)CCCNc1ccnc2cc(Cl)ccc12,283
11,CCCCNCc1ccc(-c2nc(CN(CCCn3ccnc3)C(=O)Nc3ccc(CC)cc3)cs2)cc1,830
12,COc1ccc(NC(=O)[C@H](CC(C)C)Nc2cc(C)nc(NCc3cccc(C)c3)n2)cc1,1020
13,CC(C)C(=O)ONC1=NC(=N)N(OCCCOc2cc(Cl)c(Cl)cc2Cl)C(C)(C)N1,3.2
14,Cc1ccc(CN2CCCN(Cc3cccc(NC(=O)c4ccc(-c5ccccc5)cc4)c3)CC2)cc1C,1250
15,OC1CCCN(Cc2ccc(-c3ccc(-c4nc5cc(F)ccc5[nH]4)s3)cc2)C1 (configuration not stated),851
16,CC(=O)Nc1ncc(C(=O)Nc2cccc(-c3ccc(-c4nc5ccccc5[nH]4)cc3)c2)s1,669
17,CCOC(=O)CNC(=O)N(CCN(Cc1ccccc1)C(=O)NCC(=O)OCC)Cc1ccccc1,769
18,COc1ccc(NC(=O)c2ccc(-c3cc(NC(=O)c4ccnc(N5CCCC5)c4)ccc3C)s2)cc1N1CCN(C)CC1,245
19,CCOc1cc(C)ccc1C1CCN(CCCCNC(=O)c2coc(-c3ccc(Cl)cc3)c2)CC1,914
20,COc1ccccc1C1CC(c2ccccc2)=NN1C(=O)c1ccco1 (configuration not stated),397
21,COc1cc(C(=O)NCCCN2CCN(c3cccc(Cl)c3)CC2)ccc1-c1cc2cc(Cl)c(Cl)cc2[nH]1,468
22,O=C(Nc1ccccc1Cc1ccccc1)c1ccccc1[N+](=O)[O-],860
23,Cc1ccc2[nH]c(-c3cc(-c4ccc(CO)cc4)cnc3N)nc2c1,861
24,CC(C)NCc1cccc(-c2ccc(-c3nc4ccccc4[nH]3)cc2)c1,761
25,O=C(Nc1ccc(Cl)cc1)c1cc(Cl)ccc1NC(=O)C1(c2ccc(Cl)cc2)CCCC1,1100

row,Structure (SMILES),XC50 [nM]
1,CCOc1cc(Cc2cnc(N)nc2N)cc(OCC)c1-n1cccc1 [EPIROPRIM],761
2,CCCc1cc(NC2CCN(C)CC2)nc(Nc2cccc(OC)c2)n1,765
3,CCOC(=O)c1nc(-c2ccc(-c3ccccc3)cc2)[nH]c1N,422
4,Cc1cc(N(CCCN(C)C)Cc2cc(F)cc(F)c2)nc(Nc2ccc(Cl)cc2)n1,536
5,CCN(CC)CCN1C(=O)c2oc3ccc(F)cc3c(=O)c2C1c1cccc(Cl)c1 (configuration not stated),531
6,O=c1cc(NCCCNC2CCCc3c2ccc2ccccc32)[nH]c2ccccc12 (configuration not stated),824
7,CN(C)CCCn1c(N)c(-c2nc3ccccc3[nH]2)c2nc(C#N)c(C#N)nc21,591
8,CC(C)N1CCN(c2ccc(OCCCCN3CCN(c4cccc(Cl)c4Cl)CC3)c(C(F)(F)F)c2)CC1,815
9,CS(=O)(=O)c1ccc(CCNCc2ccc(-c3ccc(CN(C(=O)C4CC(=O)c5ccccc54)C4CCN(Cc5ccccc5)CC4)cc3)nc2)cc1 (configuration not stated),592
10,CC(C)(C)c1ccc(CN2CCCCC(NC(=O)c3cc(-c4ccccc4F)cs3)C2)cc1 (configuration not stated),267
11,CN(C)CCN(C)Cc1ccc(-c2ccc3c(Nc4ccc(Oc5ccccc5)cc4)ccnc3c2)o1,179
12,CC1(C)NC(N)=NC(=N)N1OCCNCc1ccc(Cl)cc1,160
13,COc1ccc2nccc([C@@H](O)CN3CCC(NCc4ccc5c(c4)oc(=S)n5C)CC3)c2c1,187
14,O=C(Nc1ccc(-c2nc3ccccc3[nH]2)cc1)C1CCN(Cc2cccc(F)c2F)CC1,1100
15,COc1cc(NC(=O)/C=C/c2ccccc2OC(F)(F)F)cc(OCCN2CCCCC2)c1,190
16,Cc1ccc(C2CCN(CCCCNC(=O)c3ccc(NC(=O)c4ccc(Cl)cc4)cc3)CC2)c(OCC(F)(F)F)c1,284
17,CS(=O)(=O)Cc1ccc(Nc2nccc(NC3CCN(c4nccc(C(F)(F)F)n4)CC3)n2)cc1,896
18,COc1cc2c(c(Cl)c1OC)CCN(C(=O)C(F)(F)F)CC2c1ccccc1 (configuration not stated),441
19,Cc1cccc2nc(-c3cccc(-c4ccc(NC(=O)CS(C)(=O)=O)cc4)c3)[nH]c12,1000
20,CS(=O)(=O)c1ccc(CNCc2ccc(-c3cccc(-c4nc5ccccc5[nH]4)c3)cc2)cc1,326
21,CC(C)CCCC(C)NC[C@@H](O)[C@H](Cc1ccccc1)NC(=O)c1cc(N2CCCC2=O)cc(N(c2ccccc2)S(C)(=O)=O)c1 (some centres not stated),58.4
22,O=C(Nc1ccc(C(F)(F)F)cc1)Nc1cccc([N+](=O)[O-])c1,865
